Laboratory results as given in patent US5747239A, “Synthetic peptides specific for the detection of antibodies to HCV, diagnosis of HCV infection and preventions thereof as vaccines” (United Biomedical, Inc., priority 1994, dated 1998).

Experiments:
Format in all cases: binding, human
antibodies to HCV [1] = assay: Peptide ELISA for relative immunoreactivity, 8 member HCV serum panel (Panel I); conditions: NS-3 peptides (Tables 4B-4D), relative to pep3 (279A)
antibodies to HCV [2] = assay: EIA of NS-3 peptides before and after pH adjustment
Experimental: Peptides dissolved at 1 mg/mL in H2 O, pH 4, were titrated to pH 11 by addition of diluted NaOH. After 5 min at pH 11, the pH of the peptide solution was brought down to 7.0 using diluted HCl. Immunoreactivity of the peptides thus treated was compared with reactivity prior to pH adjustment (Table 4E). Two-to three-fold increases in A492 nm were seen. Some previously non-reactive serum samples were able to react with pH adjusted peptides. For instance, serum sample 1, which is non-reactive to 261C, has an absorbance of 1401 mA when tested with the corresponding pH adjusted peptide.

antibodies to HCV [3] = assay: Envelope/NS-1 peptide ELISA, samples nonreactive on HCV core (VIIIE) and NS-4 (IIH) peptides
Experimental: In addition to screening on Panel III samples, the envelope/NS-1 peptides were also tested against samples from plasmapheresis donors who had elevated ALT levels but were non-reactive on the HCV from the core (e.g. peptide VIIIE) and NS-4 (e.g. peptide IIH) regions screening EIA. Six of these samples, which may represent early seroconversion samples, were reactive on one or more envelope/NS-1 peptide (Table 8d). The absorbance values on these HCV EIA nonreactive samples are lower than the values found for Panel III samples. In the case of Pep7 and Pep10, their shorter segments, 225B and 246C, respectively, gave greater immunoreactivity, in contrast to the performance on Panel III.

antibodies to HCV [4] = assay: Envelope/NS-1 peptide ELISA, anti-HCV positive plasmapheresis donors with elevated ALT (Panel III); conditions: for % Relative Immunoreactivity: envelope/NS-1 peptides, Panel III (17 samples), peptide 254B as a standard
Experimental: To select a panel of samples with reactivity to peptides from the envelope/NS-1 region, 97 such samples from anti-HCV positive plasmapheresis donors with elevated ALT levels were tested with peptide 254B. […] 17 samples with the greatest reactivity with peptide 254B were chosen to form a third panel (Panel III) to screen for the immunoreactivity of the other 20 peptides from the envelope/NS-1 region. The individual absorbance values of each of the 17 samples on the four peptides with the greatest reactivity, i.e. 255C (pep7), 254B (pep8), 247B (pep9), and 246D (pep10), are listed in Table 8b.

antibodies to HCV [5] = assay: Peptide ELISA for relative immunoreactivity, 8 member HCV serum panel (Panel I)
Experimental: As an example to illustrate how relative (%) immunoreactivity for HCV synthetic peptides is measured, wells of 96-well plates are coated for 1 hour at 37° C., with each of the following peptides: IIH, V, VIIIE and pep11 at 5 ug/mL at 100 uL per well in 10 mM NaHCO3 buffer, pH 9.5. The peptide coated wells were then incubated with 250 uL of 3% by weight of gelatin in PBS in 37° C. for 1 hour to block non-specificprotein binding sites, followed by three washes with PBS containing 0.05% by volume of TWEEN 20 and then dried. The test specimens containing a panel of eight well-characterized HCV antibody positive patient sera were diluted with PBS containing 20% by volume normal goat serum, 1% by weight gelatin and 0.05% by volume TWEEN 20 at dilutions of 1:20 volume to volume, respectively. 200 uL of the diluted specimens were added to each of the wells and allowed to react for 15 minutes at 37° C.
The wells were then washed six times with 0.05% by volume TWEEN 20 in PBS in order to remove unbound antibodies. Horseradish peroxidase conjugated goat anti-human IgG was used as a second antibody tracer to bind with the HCV antibody-peptide antigen complex formed in positive wells. 100 uL of peroxidase labeled goat anti-human IgG at a dilution of 1:1800 in 1% by volume normal goat serum, 0.05% by volume TWEEN 20 in PBS was added to each well and incubated at 37° C. for another 15 minutes.
The wells were washed six times with 0.05% by volume TWEEN 20 PBS to remove unbound antibody and reacted with 100 uL of the substrate mixture containing 0.04% by weight orthophenylenediamine (OPD) and 0.12% by volume hydrogen peroxide in sodium citrate buffer, pH 5.0.
This substrate mixture was used to detect the peroxidase label by forming a colored product. Reactions were stopped by the addition of 100 uL of 1.0M H2 SO4 and the A492 mm measured. Results of relative immunoreactivity for each of the peptides obtained from this study are shown in Table A using peptide II H as the reference.

[6] = system: antibodies to peptide VIIIE; assay: Presence of antibodies to peptide VIIIE in sera
[7] = serum sample 1, Ctrl (prior to pH adjustment)
[8] = serum sample 1, pH adj (pH 11 for 5 min, then 7.0)

Question: “SVTVPHPNIEEVALSTTGEIPFYGKAIPLEVIKGGRHLIFCHSKKKCDEL [261C]” was tested. Which “% Relative Immunoreactivity” value (antibodies to HCV [1]) did it give?
Answer: The value was 3.2%.

Question: And the relative immunopotency (antibodies to HCV [2]; after pH adjustment, compared with the standard pep3 (279A))?
Answer: Its relative immunopotency is 68.5%.

Question: What about the “A492 nm (mA) by EIA” value (antibodies to HCV [2]; [7]) of the same molecule?
Answer: The value was 6 mA.

Question: What about the “A492 nm (mA) by EIA” value (antibodies to HCV [2]; [8]) of the same molecule?
Answer: Its value is 1401 mA.

Question: And the “A492 nm (mA) by EIA” value (antibodies to HCV [2]; serum sample 2, Ctrl)?
Answer: The value was 5 mA.

Question: And the “A492 nm (mA) by EIA” value (antibodies to HCV [2]; serum sample 2, pH adj)?
Answer: The value was 499 mA.

Question: And the “A492 nm (mA) by EIA” value (antibodies to HCV [2]; serum sample 3, Ctrl)?
Answer: Its value is 24 mA.

Question: And the “A492 nm (mA) by EIA” value (antibodies to HCV [2]; serum sample 3, pH adj)?
Answer: The value was 175 mA.

Question: What about the “A492 nm (mA) by EIA” value (antibodies to HCV [2]; serum sample 4, Ctrl) of the same molecule?
Answer: Its value is 27 mA.

Question: What about the “A492 nm (mA) by EIA” value (antibodies to HCV [2]; serum sample 4, pH adj) of the same molecule?
Answer: Its value is 351 mA.

Question: How did the Absorbance (antibodies to HCV [3]; sample 4) turn out when “VRNSTGLYHVTNDCPNSSIVYEAHDAILHTPGCPCVREGNVSRC [255B]” was run?
Answer: The Absorbance was 0.021.

Question: And the Absorbance (antibodies to HCV [3]; sample 6)?
Answer: The Absorbance was 0.012.

Question: What about the “% Relative Immunoreactivity” value (antibodies to HCV [4]) of the same molecule?
Answer: The value was 18.7%.

Question: Which results are given for “WHINSTALNCNESLNTGWLAGLIYQHKFNSSGCPERLASC [246D]”?
Answer: Absorbance (antibodies to HCV [3]; sample 1 (first line, number not given)): 0.068; Absorbance (antibodies to HCV [3]; sample 2): 0.028; Absorbance (antibodies to HCV [3]; sample 3): 0.029; Absorbance (antibodies to HCV [3]; sample 4): 0.049; Absorbance (antibodies to HCV [3]; sample 5): 0.009; Absorbance (antibodies to HCV [3]; sample 6): 0.102; Absorbance (antibodies to HCV [4]; Panel III sample 1): 1.085; Absorbance (antibodies to HCV [4]; Panel III sample 2): 0.068; Absorbance (antibodies to HCV [4]; Panel III sample 3): 0.090; Absorbance (antibodies to HCV [4]; Panel III sample 5): 0.077; Absorbance (antibodies to HCV [4]; Panel III sample 9): 0.334; Absorbance (antibodies to HCV [4]; Panel III sample 10): 1.488; Absorbance (antibodies to HCV [4]; Panel III sample 11): 0.045; Absorbance (antibodies to HCV [4]; Panel III sample 12): 0.408; Absorbance (antibodies to HCV [4]; Panel III sample 13): 0.451; Absorbance (antibodies to HCV [4]; Panel III sample 14): 0.037; Absorbance (antibodies to HCV [4]; Panel III sample 16): 0.810; Absorbance (antibodies to HCV [4]; Panel III sample 17): 0.111; % Relative Immunoreactivity (antibodies to HCV [4]): 98.6%

B1: TVLDQAETAGARLVVLATATPPGSVTVPHPNIEEVALSTTGEIPFYGKAIPLEVIKGGRHLIFCHSKKKCDEL (peptide)
chain: TVLDQAETAGARLVVLATATPPGSVTVPHPNIEEVALSTTGEIPFYGKAIPLEVIKGGRHLIFCHSKKKCDEL
Question: B1 was tested. Which “% Relative Immunoreactivity” value (antibodies to HCV [1]) did it give?
Answer: Its value is 15.8%.

B2: STIPKPQRKTKRNTNRRPQDVKFPGGGQIVGGVYLLPRRGPRLGVRATRKTSERSQPRGRR (peptide)
peptide: STIPKPQRKTKRNTNRRPQDVKFPGGGQIVGGVYLLPRRGPRLGVRATRKTSERSQPRGRR
Question: How did the A492 nm (antibodies to HCV [5]; Panel I serum No. 1, peptide coated at 5 ug/mL, serum 1:20) turn out when B2 was run?
Answer: The A492 nm was 2.745.

Question: And the A492 nm (antibodies to HCV [5]; Panel I serum No. 2)?
Answer: Its A492 nm is 2.208.

Question: What about the A492 nm (antibodies to HCV [5]; Panel I serum No. 3) of the same molecule?
Answer: The A492 nm was 2.468.

Question: And the A492 nm (antibodies to HCV [5]; Panel I serum No. 4)?
Answer: The A492 nm was 3.032.

Question: What about the A492 nm (antibodies to HCV [5]; Panel I serum No. 5) of the same molecule?
Answer: The A492 nm was 0.054.

Question: And the A492 nm (antibodies to HCV [5]; Panel I serum No. 6)?
Answer: The A492 nm was 2.108.

Question: What about the A492 nm (antibodies to HCV [5]; Panel I serum No. 7) of the same molecule?
Answer: Its A492 nm is 0.730.

Question: What about the A492 nm (antibodies to HCV [5]; Panel I serum No. 8) of the same molecule?
Answer: Its A492 nm is 3.006.

Question: What about the “samples of the HCV serum panel that reacted” value (antibodies to HCV [5]; Panel I, 8 samples) of the same molecule?
Answer: The value was 7 out of 8.

Question: And the “% Relative Immunoreactivity” value (antibodies to HCV [5]; Panel I, peptide IIH as the reference)?
Answer: The value was 98%.

Question: What about the “% Relative Immunoreactivity” value (antibodies to HCV [5]; capsid peptides, Panel I, relative to VIIIE, coated at 5, 1 and 0.2 μg/mL) of the same molecule?
Answer: The value was 100.0%.

Question: And the “A492 nm Total” value (antibodies to HCV [5]; sum over Panel I No. 1 to 8)?
Answer: The value was 16.351.

Question: What about the “antibodies to the peptide present in” value ([6]; HBsAg positive individuals) of the same molecule?
Answer: Its value is 15-20%.

Question: And the “antibodies to the peptide present in” value ([6]; normal controls)?
Answer: Its value is 1-2%.

B3: LVLNPSVAATLGFGAYMSKAHGIDPNIRTGVRTITTGSPITYSTYGKFLADGGCSGGAYDIIICDECHS (peptide)
chain: LVLNPSVAATLGFGAYMSKAHGIDPNIRTGVRTITTGSPITYSTYGKFLADGGCSGGAYDIIICDECHS
Question: What does the source list for B3?
Answer: % Relative Immunoreactivity (antibodies to HCV [1]): 11.1%; A492 nm (mA) by EIA (antibodies to HCV [2]; [7]): 210 mA; A492 nm (mA) by EIA (antibodies to HCV [2]; [8]): 591 mA; A492 nm (mA) by EIA (antibodies to HCV [2]; serum sample 2, Ctrl): 37 mA; A492 nm (mA) by EIA (antibodies to HCV [2]; serum sample 2, pH adj): 159 mA; A492 nm (mA) by EIA (antibodies to HCV [2]; serum sample 3, Ctrl): 0 mA; A492 nm (mA) by EIA (antibodies to HCV [2]; serum sample 3, pH adj): 217 mA; A492 nm (mA) by EIA (antibodies to HCV [2]; serum sample 4, Ctrl): 124 mA; A492 nm (mA) by EIA (antibodies to HCV [2]; serum sample 4, pH adj): 311 mA
